# Values of other authors, collected in PMC7148434, “ACE-domain selectivity extends beyond direct interacting residues at the active site” (Biochemical Journal, 2020).
# Values joined by “and” are separate entries in the source; they are usually repeats but may differ in a detail not shown here. Equal values may be shown once.
# How the values were obtained:
# nACE [1] = conditions: cited from earlier work
# nACE [2] = target: nACE (Homo sapiens, UniProt P12821); set-up: The truncated (single domain) wild-type N-domain (nACE), wild-type C-domain (cACE) and N-domain mutant constructs; made in house; host or cells: CHO-K1; conditions: nACE; ref Lubbe et al. [23]; cited from earlier work
# Chain of nACE (Homo sapiens, UniProt P12821) (P12821 40-624 limits assumed): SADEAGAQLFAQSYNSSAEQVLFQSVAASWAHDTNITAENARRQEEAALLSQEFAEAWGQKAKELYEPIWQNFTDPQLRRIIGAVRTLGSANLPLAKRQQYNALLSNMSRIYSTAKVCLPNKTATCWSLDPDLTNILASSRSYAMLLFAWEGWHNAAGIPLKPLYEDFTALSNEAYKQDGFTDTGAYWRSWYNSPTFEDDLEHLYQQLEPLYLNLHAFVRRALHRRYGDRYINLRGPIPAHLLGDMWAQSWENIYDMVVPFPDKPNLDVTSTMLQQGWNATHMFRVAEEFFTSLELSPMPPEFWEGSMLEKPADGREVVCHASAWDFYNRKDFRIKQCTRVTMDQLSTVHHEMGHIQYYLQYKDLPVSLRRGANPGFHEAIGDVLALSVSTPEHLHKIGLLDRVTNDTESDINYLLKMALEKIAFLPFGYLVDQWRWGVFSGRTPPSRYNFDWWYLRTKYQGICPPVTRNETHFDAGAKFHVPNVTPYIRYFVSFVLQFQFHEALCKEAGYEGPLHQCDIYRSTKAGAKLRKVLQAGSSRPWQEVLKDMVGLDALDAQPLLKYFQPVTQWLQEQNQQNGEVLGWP
# [3] = target: S′-nACE (S260T, E262S, D354E, S357V, T358V and E431D) (Homo sapiens, UniProt P12821, D383E/E291S/E460D/S289T/S386V/T387V); set-up: The truncated (single domain) wild-type N-domain (nACE), wild-type C-domain (cACE) and N-domain mutant constructs; made in house; host or cells: CHO-K1; conditions: cited from earlier work
# Chain of S′-nACE (S260T, E262S, D354E, S357V, T358V and E431D) (P12821 40-624 S289T/E291S/D383E/S386V/T387V/E460D): as the sequence (P12821 40-624 limits assumed) above, with S250T, E252S, D344E, S347V, T348V, E421D counted along it
# [4] = target: S2-nACE (Y369F and R381E) (Homo sapiens, UniProt P12821, R410E/Y398F); set-up: The truncated (single domain) wild-type N-domain (nACE), wild-type C-domain (cACE) and N-domain mutant constructs; made in house; host or cells: CHO-K1; conditions: cited from earlier work
# Chain of S2-nACE (Y369F and R381E) (P12821 40-624 Y398F/R410E): as the sequence (P12821 40-624 limits assumed) above, with Y359F, R371E counted along it
# [5] = target: S2_S′-nACE (S260T, E262S, D354E, S357V, T358V, Y369F, R381E and E431D) (Homo sapiens, UniProt P12821, D383E/E291S/E460D/R410E/S289T/S386V/T387V/Y398F); set-up: The truncated (single domain) wild-type N-domain (nACE), wild-type C-domain (cACE) and N-domain mutant constructs; made in house; host or cells: CHO-K1; conditions: cited from earlier work
# Chain of S2_S′-nACE (S260T, E262S, D354E, S357V, T358V, Y369F, R381E and E431D) (P12821 40-624 S289T/E291S/D383E/S386V/T387V/Y398F/R410E/E460D): as the sequence (P12821 40-624 limits assumed) above, with S250T, E252S, D344E, S347V, T348V, Y359F, R371E, E421D counted along it
# cACE = cACE (Homo sapiens, UniProt P12821); set-up: The truncated (single domain) wild-type N-domain (nACE), wild-type C-domain (cACE) and N-domain mutant constructs; made in house; host or cells: CHO-K1; method as in Lubbe et al. [23]; conditions: ref Lubbe et al. [23]; cited from earlier work
# Chain of cACE (P12821 643-1222 limits assumed): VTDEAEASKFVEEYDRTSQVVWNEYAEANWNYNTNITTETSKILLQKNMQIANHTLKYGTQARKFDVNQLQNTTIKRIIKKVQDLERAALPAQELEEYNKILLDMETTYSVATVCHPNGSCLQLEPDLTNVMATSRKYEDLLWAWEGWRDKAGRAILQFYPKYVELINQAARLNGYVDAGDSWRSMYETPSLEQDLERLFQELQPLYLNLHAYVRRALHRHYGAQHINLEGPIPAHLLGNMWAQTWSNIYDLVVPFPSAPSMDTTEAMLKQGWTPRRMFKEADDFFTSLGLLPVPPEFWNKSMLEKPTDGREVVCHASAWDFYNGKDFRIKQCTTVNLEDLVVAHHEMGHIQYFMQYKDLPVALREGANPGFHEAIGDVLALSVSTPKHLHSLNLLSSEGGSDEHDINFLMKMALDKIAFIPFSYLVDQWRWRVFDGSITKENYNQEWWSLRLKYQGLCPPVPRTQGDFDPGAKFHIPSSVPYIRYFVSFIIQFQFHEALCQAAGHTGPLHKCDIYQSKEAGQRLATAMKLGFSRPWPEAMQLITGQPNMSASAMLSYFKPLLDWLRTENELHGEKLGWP
smiles,measurement,setting,value
C[C@H](CP(=O)(O)[C@H](Cc1ccccc1)NC(=O)C(N)Cc1nnn[nH]1)C(=O)N[C@@H](C)C(N)=O (stereo partly drawn) [33RE],Selectivity (Ki cACE/Ki nACE or mutant),"nACE [1]; Ki cACE / Ki nACE (N-selectivity), ref Lubbe et al. [23]",1000 and 1006
same,selectivity over cACE,"nACE [1]; nACE over cACE, previous kinetic studies",~1000 fold
same,Ki,nACE [2],11.2 ± 0.735 nM
same,Selectivity (Ki cACE/Ki nACE or mutant),"[3]; Ki cACE / Ki S′-nACE, ref Lubbe et al. [23]",48
same,decrease in binding affinity compared with nACE,[3]; S′-nACE relative to nACE,22 fold
same,Ki,"[3]; S′-nACE, ref Lubbe et al. [23]",237 ± 13.6 nM
same,Selectivity (Ki cACE/Ki nACE or mutant),"[4]; Ki cACE / Ki S2-nACE, ref Lubbe et al. [23]",4
same,decrease in binding affinity compared with nACE,[4]; S2-nACE relative to nACE,254 fold
same,Ki,"[4]; S2-nACE, ref Lubbe et al. [23]",2790 ± 156 nM
same,Selectivity (Ki cACE/Ki nACE or mutant),"[5]; Ki cACE / Ki S2_S′-nACE, ref Lubbe et al. [23]",1.1
same,decrease in binding affinity compared with nACE,[5]; S2_S′-nACE relative to nACE,900 fold
same,Selectivity (Ki cACE/Ki nACE or mutant),cACE,1
